The subject of test [1] is ischemia condition. Particulars: cited from earlier work.
Test [2] concerns animal model of anaemia. As to conditions: animal model of anaemia (Jain et al., 2019; Joharapurkar et al., 2018); cited from earlier work.
Test [3] has as its system PHZ-induced haemolytic anaemia. The experiment in a line: Phenylhydrazine (PHZ)-induced haemolytic anaemia in mice. In kind it is in vivo, mice (male C57BL/6J). Particulars: 15 mg/kg, PO, daily day -1 to day 5; PHZ-treated mice. As to the method:
Male C57BL/6J (6-8 weeks old) were used in the study. Mice were treated with phenylhydrazine (PHZ) on day 0, day 1 and day 3. The PHZ was given by intraperitoneally route at 40 mg/kg on day 0, and 20 mg/kg on day 1 and 3. Vehicle control or compound of formula (Ia) (15 mg/kg, PO) was given daily from day −1 to day 5. At the end of treatment period, whole blood samples were processed for haemoglobin, RBC and haematocrit measurement. The serum samples were analyzed for total iron content. The effect on oxidative and inflammatory markers will be analyzed.

Test [4] concerns isolated RBCs. Nature of the test: PHZ-induced reactive oxygen species (DCFDA/DCF) in isolated RBCs. Format: cell-based, C57BL/6J. Particulars: PHZ 10 μM, RBC suspension. How it is done:
(§1) The RBC was isolated from healthy male C57BL/6J (6-8 weeks old) into a heparinized tube. The RBC pellet was isolated by centrifugation. The RBC pellet was washed three time with glucose supplemented phosphate buffered saline (PBS). The final RBC pellet was diluted 1:4 with glucose supplemented PBS. The RBC suspension was incubated with compound of formula (Ia) at 0.05, 0.5 and 5 μM concentration for 30 min at 37° C. Then the phenylhydrazine (10 μM) was added to all groups and incubated for further 30 min at 37° C. After that 2,7-Dichlorofluorescin-diacetate (DCFDA, 400 μM) was added to the RBC suspension and incubated for 30 min at 37° C. After incubation, the RBC suspension was washed two times with glucose-PBS, and RBC were lysed with 200 μL of ice-cold 0.1% Triton X100 and then incubated for 30 min in darkness at room temperature. After 30 min incubation, the fluorescence of all samples was read (excitation wavelength: 485 nm and emission wavelength: 538 nm). The concentration of 2,7-Dichlorofluorescin (DCF) was calculated from the DCF standard curve. For thiobarbituric acid reactive substances (TBARS) measurement, RBC lysate was used and malondialdehyde was measured using thiobarbituric acid method (Patel V et al., 2018).

Test [5] has as its system isolated RBCs. The experiment in a line: TBARS (malondialdehyde, thiobarbituric acid method) in RBC lysate after PHZ. As to conditions: PHZ 10 μM. In kind it is cell-based, C57BL/6J. How it is done: as §1
Test [6] relates to erythroid progenitor cells in bone marrow of anemic rats. The experiment in a line: Erythroid progenitor cells in bone marrow of cisplatin/turpentine oil anemic rats. In kind it is in vivo. As to conditions: 15 mg/kg, PO, alternate day, two weeks. As to the method: The anaemia was induced by cisplatin (5 mg/kg, IP, single dose) and turpentine oil (5 mL/kg, SC, twice a week) administration for four weeks. The compound of formula (Ia) (15 mg/kg, PO, alternate day) treatment was initiated after two weeks of cisplatin/turpentine oil administration. After two weeks of compound of formula (Ia) treatment, animals were euthanized and bone marrow was isolated. Bone marrow smear was prepared and stain with May-Grunwald stain and Giemsa stain. The ratio of erythroid progenitor cell: total cells were expressed as percentage.

[7] abbreviates: ischemia condition (Joharapurkar et al., 2021).
Setting [8] is: oxidative stress (Joharapurkar et al., 2021).

As for `O=C(O)CNC(=O)c1c(O)c2ccccc2n(OCC2CC2)c1=O` [Desidustat], in test [1] (setting [7]), the IL-1β levels entry is on record as “reduced” and the IL-6 levels result is listed as “reduced”. In addition, in test [1] (setting [8]), the “malondialdehyde (MDA)” value is “decreases” and the “superoxide dismutase (SOD)” value is listed as “decreases”. In test [2], the HIF stabilization result was “stabilizes HIF” and the erythropoiesis result is reported as “induces erythropoiesis”.
`O=C(O)CNC(=O)c1c(O)c2ccccc2n(OCC2CC2)c1=O` [compound of formula (Ia)]: in test [3], the “decrease in serum iron levels” value is 26.0±7.6%. In test [3], the “increase in HCT level compared with PHZ control” value amounted to 37.7±5.7%. Besides, the “increase in RBC level compared with PHZ control” value in test [3] is 44.2±10.4%. Besides, the “increase in hemoglobin level compared with PHZ control” value in test [3] is 36.4±6.2%. For the same molecule, the “decrease of ROS (DCF concentration) compared with vehicle control” value in test [4] (0.05 μM) is given as 9.6±8.9%; in test [4] (0.5 μM) it was 25.5±3.8%; in test [4] (5 μM) it was 35.1±1.7%. The results for the “decrease of TBARS levels compared with vehicle control” value in test [5] (0.05 μM), in test [5] (0.5 μM) and in test [5] (5 μM) were 5.5±4.0%, 21.8±4.0% and 27.3±4.0%, respectively. The “increase in % erythroid progenitor cells compared with vehicle control” value in test [6] amounted to 2.2±0.5 fold.

Source of the values: patent US20240173314A1, “TREATMENT OF SICKLE CELL ANAEMIA” (ZYDUS LIFESCIENCES LIMITED, priority 2021, published 2024).
